Results on one compound are retold here after article PMC11942905, “Identification of a Selective Inhibitor of Human NFS1, a Cysteine Desulfurase Involved in Fe-S Cluster Assembly, via Structure-Based Virtual Screening” (International Journal of Molecular Sciences, 2025).

Assay [1] deals with A549 cells. The assay is described as follows: CCK-8 cell viability assay, A549. Format: cell-based, human. On the procedure: (§1) Human bronchial epithelial cells (BEAS-2B) and human lung adenocarcinoma A549 cells were purchased from the Institute of Biochemistry and Cell Biology, Chinese Academy of Sciences (Shanghai, China). BEAS-2B and A549 cells were cultured in DMEM supplemented with 10% (v/v) fetal bovine serum and 1% (v/v) penicillin–streptomycin solution at 37 °C in a humidified atmosphere containing 5% CO2. The half-maximal inhibitory concentration (IC50) values of the selected compounds against BEAS-2B and A549 cells were determined using the CCK-8 assay. Briefly, the cells were seeded into 96-well culture plates at a density of 5 × 10^3 cells per well. After 12 h of culture, fresh medium containing varying concentrations of the selected compounds dissolved in DMSO was added for an additional 72-hour incubation. Subsequently, 10 μL of CCK-8 solution was added to each well, followed by a further 1.5-h incubation at 37 °C. The optical density at 450 nm (OD450) for each well was measured using a microplate reader. Medium containing DMSO alone was used as the control group. Cell viability was calculated as the percentage of the OD450 of the experimental group compared to that of the control group, which was set at 100%.

The subject of the next assay is BEAS-2B cells. The assay is described as follows: CCK-8 cell viability assay, BEAS-2B. Format: cell-based. To be noted: Homo sapiens, CCK-8, 72 h. As for the experimental part:
as §1
In general terms: Tetrazolium dyes change colour on reduction, which living cells bring about.

Assay [2] relates to A549 cells. Briefly: Cellular iron content by atomic absorption spectroscopy. It is filed as cell-based, human. Conditions: 50 µM, 48 h. As for the experimental part: A549 cells were seeded in a 6-well plate and grown to 40–60% confluence. […] The cells were then washed three times with PBS and digested with 0.25% trypsin (Servicebio, Wuhan, China) for 2 min. The cells were divided into two equal groups: group A and group B. In group A, the cells were lysed with RIPA lysis buffer supplemented with 1 mM of PMSF to extract the total proteins. Protein concentrations were measured using a BCA protein assay reagent kit. In group B, the cells were treated with concentrated nitric acid at 70 °C for 2 h. Once the cells were completely nitrated, the temperature was increased to 150 °C until the nitric acid had completely evaporated. Subsequently, the samples were diluted to 10 mL with a solution containing 1% HNO3 and 0.1% KCl, and the iron levels were measured using atomic absorption spectroscopy (AAS; Analytik Jena AG, Jena, Germany). The iron content was calculated based on the standard curve, and the values were normalized to the protein concentration.

A further assay addresses T1, NFS1 K157A (Homo sapiens, UniProt Q9Y697, K157A).
T1 construct: His tag (N); made in house; host or cells: E. coli BL21(DE3)
Briefly: H2S-producing assay, NFS1 K157A mutant. Format: biochemical. As for the experimental part: To further validate the accuracy of the simulated results, the residues Cys158, Glu387, Lys157, and His156 were mutated to alanine using site-directed mutagenesis.
For the expression and purification of NFS1Δ1-55/ISD11 in E. coli, the plasmid pNFS1-ISD11 was transformed into BL21(DE3) cells. The cells were grown at 37 °C in 1 L cultures of LB medium containing chloramphenicol (50 μg/ml) until the optical density at 600 nm (OD600) reached 0.6–0.8. Protein expression was induced by adding 0.1 mM isopropyl β-D-1-thiogalactopyranoside (IPTG), followed by an additional 12 h of incubation at 25 °C. The cells were harvested by centrifugation at 8000 rpm for 10 min at 4 °C, then resuspended in lysis buffer containing 50 mM phosphate-buffered saline (PBS, pH 7.4), 500 mM NaCl, 100 mg/L lysozyme, 30 mM imidazole, and 1 mM phenylmethanesulfonyl fluoride (PMSF). The resuspended cells were incubated on ice for 1 h, followed by sonication using an Ultrasonic Cell Disruption System (Scientz, Ningbo, China). The supernatant was obtained by centrifugation at 12,000 rpm for 30 min at 4 °C and was loaded onto a HisTrap FF column (GE Healthcare, Chicago, MA, USA) pre-equilibrated with lysis buffer. […] The protein concentration was measured using a BCA protein assay reagent kit (TransGen Biotech, Beijing, China).

In assay [3] the test system is succinate dehydrogenase (SDH). Briefly: Succinate dehydrogenase activity in A549 cells. It is filed as cell-based, human. To be noted: 50 µM. On the procedure: (§2) The activity of succinate dehydrogenase (SDH) in cells was determined using an SDH activity assay kit (Solarbio, Beijing, China) according to the manufacturer’s instructions. The optical density at 600 nm (OD600) was measured using a multifunctional microplate reader in 96-well plates. One unit of SDH activity was defined as the amount of enzyme catalyzing the consumption of 1 nmol of 2,6-dichlorophenol indophenol per minute at 37 °C [43]. The activity of aconitase (ACO) was measured as previously described, with some modifications. The cells were washed three times with pre-cooled PBS and lysed with lysis buffer containing 50 mM of Tris-HCl (pH 8.0), 0.2% Triton X-100, 0.6 mM of MnCl2, 5 mM of citrate, and 1 mM of PMSF. The aconitase activity was measured by monitoring the formation of cis-aconitate from isocitrate at 240 nm in 50 mM of Tris-HCl (pH 8.0) containing 20 mM of DL-trisodium isocitrate at 37 °C. An extinction coefficient of 3600 M^−1 cm^−1 at 240 nm was used to calculate the cis-aconitate concentration. One unit of ACO activity was defined as the amount of enzyme catalyzing the generation of 1 nmol of cis-aconitate per minute at 37 °C.

Another assay deals with aconitase (ACO). The assay is described as follows: Aconitase activity in A549 cells. Format: cell-based, human. To be noted: 50 µM. On the procedure:
as §2

T1 sequence (Q9Y697 56-457 K157A): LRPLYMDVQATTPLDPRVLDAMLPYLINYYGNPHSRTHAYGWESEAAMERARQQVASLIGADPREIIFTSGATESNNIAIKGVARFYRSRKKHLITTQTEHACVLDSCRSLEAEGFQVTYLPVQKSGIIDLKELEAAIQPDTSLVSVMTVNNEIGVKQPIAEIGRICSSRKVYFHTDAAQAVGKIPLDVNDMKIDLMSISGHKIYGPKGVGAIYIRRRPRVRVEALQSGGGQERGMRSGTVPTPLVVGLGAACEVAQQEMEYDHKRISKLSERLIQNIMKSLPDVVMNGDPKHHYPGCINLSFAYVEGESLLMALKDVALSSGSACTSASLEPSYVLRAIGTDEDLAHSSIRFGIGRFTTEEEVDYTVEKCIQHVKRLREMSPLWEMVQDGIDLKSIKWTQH

A word on the IC50: it is the concentration that gives 50% inhibition. Turning to `COc1cc(/C=N/NC(=O)COc2ccc(Cl)cc2Cl)ccc1O` [Compound 53], in the assay on A549 cells [1] (A549 cells, Compound 53 50 µM with 2.5 µM Erastin, versus without), the “anti-proliferative activity in the presence of Erastin” value is recorded as “increased remarkably”. Also, the IC50 in the assay with A549 cells [1] (Homo sapiens, A549, CCK-8, 72 h) was 16.3 ± 1.92 µM; in the assay with BEAS-2B cells it was 31 ± 3.98 µM; at NFS1 K157A it was 53.2 ± 6.44 µM. For the same compound, in the assay on A549 cells [2], the cellular iron content result is listed as “significantly increased the cellular iron content”. In addition, the “SDH activity compared to the control group” value in assay [3] stood at 81.8%. Further, in the assay with aconitase (ACO), the “ACO activity compared to the control group” value is 51.3%.
